{
  "source": "paper PMC10614163",
  "about": "(ACS nano, 2023)",
  "key": {"M^pro": {"biological_target": "M^pro (Severe acute respiratory syndrome coronavirus 2, UniProt P0DTD1)", "experiment": "M^pro-mediated dye release from coacervates", "format": "biochemical, SARS-CoV-2", "conditions": "(R5R5, D10) coacervates, 100 μM dye"}, "[1]": {"conditions": "for partitioning / effect on coacervates, in words: confocal microscopy, (R5R5, D10) coacervates"}},
  "data": [
    {"molecule": "CN(C)c1ccc2nc3ccc(N)cc3[s+]c2c1.[Cl-]", "note": "[Azure A, azure A]", "values": [
      {"measurement": "Release efficiency, RE%, by M^pro", "setting": "M^pro", "result": "95 ± 1", "unit": "%"},
      {"measurement": "Encapsulation efficiency, EE%", "setting": "[1]", "result": "50 ± 1", "unit": "%"}
    ]},
    {"molecule": "CNc1ccc2nc3ccc(N)cc3[s+]c2c1", "note": "[Azure C, azure C]", "values": [
      {"measurement": "Release efficiency, RE%, by M^pro", "setting": "M^pro", "result": "98 ± 1", "unit": "%"},
      {"measurement": "Encapsulation efficiency, EE%", "setting": "[1]", "result": "65 ± 2", "unit": "%"}
    ]},
    {"molecule": "O=C1OC2(c3ccc(O)cc3Oc3cc(O)ccc32)c2ccccc21", "note": "[Fluoresceine, fluoresceine]", "values": [
      {"measurement": "Release efficiency, RE%, by M^pro", "setting": "M^pro", "result": "73 ± 7", "unit": "%"}
    ]},
    {"molecule": "CC1(C)C(/C=C/C=C/C=C/C=C2\\N(CCCCS(=O)(=O)[O-])c3ccc4ccccc4c3C2(C)C)=[N+](CCCCS(=O)(=O)[O-])c2ccc3ccccc3c21.[Na+]", "note": "[ICG dye]", "values": [
      {"measurement": "partitioning / effect on coacervates, in words", "setting": "[1]", "result": "rapidly cause transformation of coacervates into solid aggregates"}
    ]},
    {"molecule": "Cc1cc2nc3ccc(N(C)C)cc3nc2cc1N.Cl", "note": "[Neutral red, neutral red]", "values": [
      {"measurement": "Release efficiency, RE%, by M^pro", "setting": "M^pro", "result": "99 ± 1", "unit": "%"},
      {"measurement": "Encapsulation efficiency, EE%", "setting": "[1]", "result": "93 ± 1", "unit": "%"}
    ]},
    {"molecule": "CC/N=c1\\cc2oc3cc(NCC)c(C)cc3c(-c3ccccc3C(=O)OCC)c-2cc1C", "note": "[Rhodamine 6G, rhodamine 6G]", "values": [
      {"measurement": "Release efficiency, RE%, by M^pro", "setting": "M^pro", "result": "98 ± 1", "unit": "%"},
      {"measurement": "Encapsulation efficiency, EE%", "setting": "[1]", "result": "64 ± 4", "unit": "%"}
    ]},
    {"molecule": "CCN(CC)c1ccc2c(-c3ccccc3C(=O)O)c3ccc(=[N+](CC)CC)cc-3oc2c1", "note": "[Rhodamine B, rhodamine B]", "values": [
      {"measurement": "Release efficiency, RE%, by M^pro", "setting": "M^pro", "result": "96 ± 2", "unit": "%"},
      {"measurement": "Encapsulation efficiency, EE%", "setting": "[1]", "result": "56 ± 1", "unit": "%"}
    ]},
    {"molecule": "COc1cccc2c1C(=O)c1c(O)c3c(c(O)c1C2=O)C[C@@](O)(C(=O)CO)C[C@@H]3O[C@H]1C[C@H](N)[C@H](O)[C@H](C)O1", "note": "[doxorubicin]", "values": [
      {"measurement": "partitioning / effect on coacervates, in words", "setting": "[1]", "result": "rapidly cause transformation of coacervates into solid aggregates"}
    ]}
  ]
}
